Experimental data from ChEMBL document CHEMBL6109142 (J Med Chem, 2025).
Calls of active or inactive are those of the source. No cut-off for these calls is given here.

What was measured:
[1] = test system: SARS-CoV-2; assay: Antiviral activity against SARS-CoV-2 EG.5.1 infected in human Calu-3 cells assessed as reduction in residual intracellular nucleocapsid value at 1 uM preincubated with cells for 3 hrs followed by viral infection and measured after 48 hrs by immunostaining based analysis; type: functional, organism-based; settings: Severe acute respiratory syndrome coronavirus 2, time 51.0 hrs
[2] = test system: SARS-CoV-2; assay: Antiviral activity against SARS-CoV-2 JN.1 infected in human Calu-3 cells preincubated with cells for 3 hrs followed by viral infection and measured after 48 hrs by immunostaining based analysis; type: functional, organism-based; settings: Severe acute respiratory syndrome coronavirus 2, JN.1, Calu-3
[3] = test system: SARS-CoV-2; assay: Antiviral activity against SARS-CoV-2 EG.5.1 infected in human Calu-3 cells preincubated with cells for 3 hrs followed by viral infection and measured after 48 hrs by immunostaining based analysis; type: functional, organism-based; settings: Severe acute respiratory syndrome coronavirus 2, EG.5.1, Calu-3
[4] = test system: SARS-CoV-2; assay: Antiviral activity against SARS-CoV-2 pseudotyped with delta spike protein infected in human Calu-3 cells assessed as prevention of virus-like particle cellular entry at 300 nM preincubated with cells for 3 hrs followed by viral infection and measured after 72 hrs by ONE-Glo-Ex luciferase assay relative to control; type: functional, Severe acute respiratory syndrome coronavirus 2; settings: time 75 hrs
[5] = target: T1, Suppressor of tumorigenicity 14 protein (Homo sapiens, UniProt Q9Y5Y6); assay: Inhibition of Matriptase (unknown origin) assessed as inhibition constant using Boc-QAR-AMC as substrate incubated for 1 hr by fluorescence based analysis
T1 sequence (Q9Y5Y6 whole entry): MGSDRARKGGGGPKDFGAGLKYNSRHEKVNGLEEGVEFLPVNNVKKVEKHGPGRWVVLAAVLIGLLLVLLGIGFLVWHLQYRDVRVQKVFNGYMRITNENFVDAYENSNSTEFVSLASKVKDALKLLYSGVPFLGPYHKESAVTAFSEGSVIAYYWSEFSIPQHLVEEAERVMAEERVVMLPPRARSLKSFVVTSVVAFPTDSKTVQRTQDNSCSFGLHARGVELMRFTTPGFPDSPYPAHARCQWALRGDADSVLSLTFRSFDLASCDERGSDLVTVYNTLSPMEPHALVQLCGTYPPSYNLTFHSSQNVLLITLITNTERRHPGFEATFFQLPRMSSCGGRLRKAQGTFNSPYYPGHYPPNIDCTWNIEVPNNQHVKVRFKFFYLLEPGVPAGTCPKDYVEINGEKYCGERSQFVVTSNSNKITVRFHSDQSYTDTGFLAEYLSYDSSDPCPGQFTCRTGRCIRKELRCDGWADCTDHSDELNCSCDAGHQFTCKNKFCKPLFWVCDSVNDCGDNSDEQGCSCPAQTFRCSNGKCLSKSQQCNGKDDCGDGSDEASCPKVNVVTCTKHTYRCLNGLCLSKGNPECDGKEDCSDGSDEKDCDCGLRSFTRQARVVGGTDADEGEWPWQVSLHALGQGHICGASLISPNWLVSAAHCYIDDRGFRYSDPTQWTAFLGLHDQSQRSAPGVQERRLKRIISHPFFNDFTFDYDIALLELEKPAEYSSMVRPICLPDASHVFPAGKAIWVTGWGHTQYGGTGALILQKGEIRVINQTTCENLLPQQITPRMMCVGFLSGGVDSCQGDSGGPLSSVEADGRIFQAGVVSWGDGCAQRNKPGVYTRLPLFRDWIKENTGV

[6] = target: T2, Transmembrane protease serine 2 (Homo sapiens, UniProt O15393); assay: Inhibition of recombinant TMPRSS2 (unknown origin) extracted from baculovirus infected in Sf9 cells using Boc-QAR-AMC as substrate measured after 1 hr by fluorescence based analysis
T2 sequence (O15393 1-255 limits assumed): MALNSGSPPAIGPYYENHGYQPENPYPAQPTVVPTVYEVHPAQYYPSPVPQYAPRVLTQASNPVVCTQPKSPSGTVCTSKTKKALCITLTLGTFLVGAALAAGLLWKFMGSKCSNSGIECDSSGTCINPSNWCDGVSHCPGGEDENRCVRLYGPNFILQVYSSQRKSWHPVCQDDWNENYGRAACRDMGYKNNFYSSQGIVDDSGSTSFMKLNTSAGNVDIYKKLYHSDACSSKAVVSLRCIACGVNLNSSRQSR
T2 sequence (O15393 256-492 limits assumed): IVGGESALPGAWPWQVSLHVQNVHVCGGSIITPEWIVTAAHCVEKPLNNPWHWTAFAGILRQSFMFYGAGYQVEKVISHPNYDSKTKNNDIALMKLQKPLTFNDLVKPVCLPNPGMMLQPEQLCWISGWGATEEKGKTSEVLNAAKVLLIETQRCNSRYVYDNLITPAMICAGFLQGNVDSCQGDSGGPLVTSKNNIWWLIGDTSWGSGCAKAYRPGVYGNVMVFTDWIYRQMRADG

[7] = target: T2, Transmembrane protease serine 2; assay: Inhibition of recombinant das TMPRSS2 (unknown origin) extracted from baculovirus infected in Sf9 cells assessed as inhibition constant using Boc-QAR-AMC as substrate measured after 1 hr by fluorescence based analysis
[8] = test system: Calu-3; assay: Cytotoxicity against human Calu-3 cells assessed as cell viability at 10 uM measured after 72 hrs by luminescence based Cell-Titer-Glo assay; type: toxicity; settings: calu-3, 72 h
[9] = target: Procathepsin L (Homo sapiens, UniProt P07711); assay: Inhibition of recombinant human C-terminal 6 his-tagged Cathepsin L assessed as inhibition constant using Z-LR-AMC as peptide substrate incubated for 1 hr by fluorescence based analysis
[10] = target: T2, Transmembrane protease serine 2; assay: Inhibition of recombinant TMPRSS2 (unknown origin) extracted from baculovirus infected in Sf9 cells assessed as residual activity using Boc-QAR-AMC as substrate at 1 nM measured after 1 hr by fluorescence based analysis relative to control
[11] = test system: SARS-CoV-2; assay: Antiviral activity against SARS-CoV-2 pseudotyped with delta spike protein infected in human Calu-3 cells assessed as prevention of virus-like particle cellular entry at 300 nM preincubated with cells for 3 hrs followed by viral infection and measured after 72 hrs by ONE-Glo-Ex luciferase assay; type: functional, organism-based; settings: Severe acute respiratory syndrome coronavirus 2, time 75.0 hrs
[12] = test system: SARS-CoV-2; assay: Antiviral activity against SARS-CoV-2 EG.5.1 infected in human Calu-3 cells assessed as reduction in residual intracellular nucleocapsid value at 1 uM preincubated with cells for 3 hrs followed by viral infection and measured after 48 hrs by immunostaining based analysis relative to control; type: functional, Severe acute respiratory syndrome coronavirus 2; settings: time 51 hrs
[13] = Cytotoxicity against human Calu-3 cells assessed as cell viability measured after 72 hrs by luminescence based Cell-Titer-Glo assay; type: toxicity
[14] = target: Coagulation factor X (Homo sapiens, UniProt P00742); assay: Inhibition of recombinant human C-terminal 10 his-tagged FXa extracted from baculovirus infected in Sf9 cells assessed as inhibition constant using Mca-RPKPVE-Nval-WRK(Dnp)-NH2 as substrate incubated for 1 hr by fluorescence based analysis
Chain of Coagulation factor X (P00742 41-179 limits assumed): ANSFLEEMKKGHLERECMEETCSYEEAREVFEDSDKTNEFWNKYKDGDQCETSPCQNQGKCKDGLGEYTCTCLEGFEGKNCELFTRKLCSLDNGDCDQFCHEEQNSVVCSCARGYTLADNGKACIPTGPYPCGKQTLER
Chain of Coagulation factor X (P00742 235-488 limits assumed): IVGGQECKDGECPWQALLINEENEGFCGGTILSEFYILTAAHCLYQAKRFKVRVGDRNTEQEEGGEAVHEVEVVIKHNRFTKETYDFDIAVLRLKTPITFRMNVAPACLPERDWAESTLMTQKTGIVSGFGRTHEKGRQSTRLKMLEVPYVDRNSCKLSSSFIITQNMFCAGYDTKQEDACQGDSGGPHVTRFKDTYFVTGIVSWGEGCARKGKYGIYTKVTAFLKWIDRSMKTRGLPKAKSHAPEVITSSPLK

With `C[C@H](NC(=O)[C@H](CCC(N)=O)NC(=O)CCCCNC(=N)N)C(=O)N[C@@H](CCCNC(=N)N)C(=O)c1nc2ccccc2s1` the Activity [1] was “Active”, the EC50 [2] was 2.8 nM and the EC50 [3] was 11.9 nM. For the same molecule, the Activity [4] was 12%, the Ki [5] was 0.16 nM and the IC50 [6] was 2.4 nM. For the same molecule, the Ki [7] was 0.53 nM, the Activity [8] was “Non-toxic” and the inhibition [9] was “inactive”. For the same molecule, the Activity [10] was 46%.

In the case of `N=C(N)NCCCCC(=O)N[C@@H](CC(N)=O)C(=O)N[C@@H](Cc1ccccc1)C(=O)N[C@@H](CCCNC(=N)N)C(=O)c1nc2ccccc2s1`, the Activity [1] is reported as “Active”, the Activity [4] is reported as 19% and the IC50 [6] is reported as 0.87 nM. The Activity [8] was “Non-toxic” and the Activity [10] was 11%.

With `C[C@H](NC(=O)CCCCNC(=N)N)C(=O)N[C@@H](Cc1ccccc1)C(=O)N[C@@H](CCCNC(=N)N)C(=O)c1nc2ccccc2s1` the Activity [1] was “Active”, the Activity [4] was 14% and the IC50 [6] was 0.66 nM. The Activity [8] was “Non-toxic” and the Activity [10] was 8%.

With `N=C(N)NCCC[C@H](NC(=O)[C@H](Cc1ccccc1)NC(=O)[C@@H]1CCC(=O)NCCCC(=O)N1)C(=O)c1nc2ccccc2s1` the Activity [1] was “Active”, the Activity [4] was 20% and the IC50 [6] was 1 nM. The Activity [8] was “Non-toxic” and the Activity [10] was 3%.

In the case of `CCOC(=O)N[C@@H](CCCNC(=N)N)C(=O)N[C@@H](CCC(N)=O)C(=O)N[C@@H](Cc1ccccc1)C(=O)N[C@@H](CCCNC(=N)N)C(=O)c1nc2ccccc2s1`, the Activity [1] is reported as “Active”, the EC50 [2] is reported as 1.3 nM and the EC50 [3] is reported as 3.9 nM. For the same molecule, the Activity [4] was 17%, the IC50 [6] was 0.89 nM and the Ki [7] was 0.095 nM. For the same molecule, the Activity [8] was “Non-toxic”, the Ki [9] was 695 nM and the Activity [10] was 3%.

In the case of `CN(C)C(=O)CC[C@H](NC(=O)CCCCNC(=N)N)C(=O)N[C@@H](Cc1ccccc1)C(=O)N[C@@H](CCCNC(=N)N)C(=O)c1nc2ccccc2s1`, the Activity [1] is reported as “Active”, the Activity [4] is reported as 18% and the IC50 [6] is reported as 0.62 nM. For the same molecule, the Activity [8] was “Non-toxic” and the Activity [10] was 16%.

For `CC(=O)N[C@@H](CCC(N)=O)C(=O)N[C@@H](Cc1ccccc1)C(=O)N[C@@H](CCCNC(=N)N)C(=O)c1nc2ccccc2[nH]1`, the Activity [11] was “Active”.

In the case of `CS(=O)(=O)N[C@@H](CCC(N)=O)C(=O)N[C@@H](Cc1ccccc1)C(=O)N[C@@H](CCCNC(=N)N)C(=O)c1nc2ccccc2s1`, the Activity [1] is reported as “Active”, the EC50 [2] is reported as 3.3 nM and the EC50 [3] is reported as 29.1 nM. The Activity [4] was 16%, the Activity [8] was “Non-toxic” and the inhibition [9] was “inactive”. The Activity [10] was 13%.

In the case of `N=C(N)NCCC[C@H](NC(=O)OCc1ccccc1)C(=O)N[C@@H](CCC(N)=O)C(=O)N[C@@H](Cc1ccccc1)C(=O)N[C@@H](CCCNC(=N)N)C(=O)c1nc2ccccc2s1`, the Activity [1] is reported as “Active”, the Activity [4] is reported as 33% and the IC50 [6] is reported as 1.4 nM. The Activity [8] was “Non-toxic” and the Activity [10] was 7%.

For `N=C(N)NCCC[C@H](NC(=O)[C@H](Cc1ccccc1)NC(=O)[C@H](CCC(N)=O)NC(=O)CCO)C(=O)c1nc2ccccc2s1`, the Activity [1] was “Active”, the Activity [4] was 24% and the IC50 [6] was 1.4 nM. For the same molecule, the Activity [8] was “Non-toxic” and the Activity [10] was 10%.

With `N=C(N)NCCCCC(=O)N[C@@H](CCC(N)=O)C(=O)N[C@@H](Cc1ccccc1)C(=O)N[C@@H](CCCNC(=N)N)C(=O)c1nccs1` the Activity [1] was “Active”, the Activity [4] was 20% and the Activity [12] was 14%. The IC50 [6] was 0.74 nM, the Activity [8] was “Non-toxic” and the Activity [10] was 20%.

In the case of `N=C(N)NCCCCC(=O)N[C@@H](Cc1ccccc1)C(=O)N[C@@H](Cc1ccccc1)C(=O)N[C@@H](CCCNC(=N)N)C(=O)c1nc2ccccc2s1`, the Activity [1] is reported as “Active”, the Activity [4] is reported as 23% and the IC50 [6] is reported as 0.66 nM. The Activity [8] was “Non-toxic” and the Activity [10] was 10%.

With `CC(=O)N[C@@H](CCC(N)=O)C(=O)N[C@@H](Cc1ccccc1)C(=O)N[C@@H](CCCNC(=N)N)C(=O)CN1CCCCC1` the Activity [11] was “Active”.

Molecule `CN(C)C(=O)COC(=O)Cc1ccc(OC(=O)c2ccc(NC(=N)N)cc2)cc1` [CAMOSTAT] has an EC50 [2] of 7.5 nM, an EC50 [3] of 201 nM and a CC50 at 72 h [13] of 110000 nM.

With `CC(C)[C@H](NC(=O)[C@H](Cc1cscn1)NC(=O)CCc1ccccc1)C(=O)N[C@@H](CCCNC(=N)N)C(=O)c1nc2ccccc2s1` the Activity [1] was “Active”, the Activity [4] was 15% and the IC50 [6] was 3 nM. For the same molecule, the Activity [8] was “Non-toxic” and the Activity [10] was 34%.

In the case of `N=C(N)NCCCCC(=O)N[C@@H](CCC(N)=O)C(=O)N[C@@H](Cc1ccccc1)C(=O)N[C@@H](CCCNC(=N)N)C(=O)c1nc2ccccc2s1`, the Activity [1] is reported as “Active”, the Activity [4] is reported as 13% and the IC50 [6] is reported as 1.4 nM. The Activity [8] was “Non-toxic” and the Activity [10] was 16%.

In the case of `CC(=O)N[C@@H](CCC(N)=O)C(=O)N[C@@H](Cc1ccccc1)C(=O)N[C@@H](CCCNC(=N)N)C(=O)c1nccn1C`, the Activity [11] is reported as “Active”.

For `N=C(N)NCCCCC(=O)N[C@H](CCC(N)=O)C(=O)N[C@@H](Cc1ccccc1)C(=O)N[C@@H](CCCNC(=N)N)C(=O)c1nc2ccccc2s1`, the Activity [1] was “Active”, the Activity [4] was 15% and the IC50 [6] was 1.4 nM. The Activity [8] was “Non-toxic” and the Activity [10] was 28%.

In the case of `CC(=O)N[C@@H](CCC(N)=O)C(=O)N[C@@H](CC1CCCCC1)C(=O)N[C@@H](CCCNC(=N)N)C(=O)c1nc2ccccc2s1`, the Activity [1] is reported as “Active”, the Activity [4] is reported as 13% and the IC50 [6] is reported as 1.3 nM. The Activity [8] was “Non-toxic” and the Activity [10] was 18%.

With `N=C(N)NCCCCC(=O)N[C@@H](CCC(N)=O)C(=O)N[C@@H](CO)C(=O)N[C@@H](CCCNC(=N)N)C(=O)c1nc2ccccc2s1` the Activity [1] was “Active”, the IC50 [6] was 3.2 nM and the Activity [8] was “Non-toxic”. For the same molecule, the Activity [10] was 19%.

With `COCCC(=O)N[C@@H](CCC(N)=O)C(=O)N[C@@H](Cc1ccccc1)C(=O)N[C@@H](CCCNC(=N)N)C(=O)c1nc2ccccc2s1` the Activity [1] was “Active”, the EC50 [2] was 1.5 nM and the EC50 [3] was 4.1 nM. For the same molecule, the Activity [4] was 17%, the IC50 [6] was 0.59 nM and the Ki [14] was 102 nM. The Activity [8] was “Non-toxic”, the inhibition [9] was “inactive” and the Activity [10] was 2%.

In the case of `CS(=O)(=O)N[C@@H](CCC(N)=O)C(=O)N[C@@H](Cc1ccccc1)C(=O)N[C@@H](CCCNC(=N)N)C(=O)c1nccs1`, the Activity [1] is reported as “Active”, the EC50 [2] is reported as 8.5 nM and the EC50 [3] is reported as 21.7 nM. It also gave an Activity [4] of 14%, an IC50 [6] of 0.87 nM and a Ki [14] of 9.2 nM. For the same molecule, the CC50 at 72 h [13] was 110000 nM, the Activity [8] was “Non-toxic” and the inhibition [9] was “inactive”. It also gave an Activity [10] of 11%.
